Like-named read-outs stand apart in the source and are kept apart here.
What was measured:
B6F10 melanocytes = assay: Measurement of melanin production in cells (α-MSH-induced melanogenesis); assay type: cell-based; conditions: α-MSH (100 nM) plus carvone (100 μM), 48 hours
Description: B16F10 melanocytes were purchased from ATCC (Manassas, Va., USA), and the purchased cells were cultured using DMEM (Dulbecco's Modified Eagle's Media) containing 10% FBS (fetal bovine serum) in an incubator at 37° C. under 5% CO2. B6F10 melanocytes were cultured in DMEM containing 10% FBS at 37° C. under 5% CO2, and then the cells were dispensed into a 6-well plate at a density of 1×10^5 cells/well and attached thereto. […] After washing twice with PBS (phosphate buffered saline), the cells were harvested. The harvested cells were centrifuged at 1,000 rpm for 5 minutes, and then the color of the pellet was visually observed. Thereafter, the cell pellet was lysed by adding 200 μL of 1N NaOH solution containing 10% DMSO, and then the absorbance at 400 nm was measured with a microplate reader.

[1] = tested on: MITF (microphthalmia transcription factor); assay: RNA extraction and quantitative PCR assay, MITF expression; assay type: cell-based; conditions: B6F10 melanocytes, α-MSH plus carvone, vs α-MSH control cells
Description: (§1) B6F10 melanocytes were cultured in DMEM containing 10% FBS at 37° C. under 5% CO2, and then the cells were dispensed into a 6-well plate at a density of 1×10^5 cells/well and attached thereto. As normal cells, cells not treated with α-MSH that induces melanogenesis were used, and as control cells, cells treated with α-MSH (100 nM) were used. The cells cultured under the above conditions were treated with α-MSH (100 nM) plus carvone (100 μM) and cultured for 48 hours. […] Using the cDNA obtained through reverse transcription as a template and using the [NT] flanking sequences of the gene cDNA to be amplified as primers, quantitative PCR was performed using iQ SYBR green supermix (Bio-Rad) and CFX ConnectTM Real-Time PCR Detection System (Bio-Rad). [table]

[2] = in water and ethanol; cited from earlier work
Tyrosinase = assay: RNA extraction and quantitative PCR assay, tyrosinase expression; assay type: cell-based; conditions: B6F10 melanocytes, α-MSH plus carvone, vs α-MSH control cells
Description: as §1

[3] = transdermal; cited from earlier work
[4] = oral, rats; cited from earlier work

C=C(C)C1CC=C(C)C(=O)C1 (stereo not shown) [carvone]
decrease of melanin content compared to control cells (B6F10 melanocytes; absorbance at 400 nm, vs α-MSH control cells): 29% | pellet color of cells, visually observed (B6F10 melanocytes; compared to control cells treated with only α-MSH): significantly paler | decrease of MITF expression compared to control cells [1]: 36% | solubility [2]: well soluble | decrease of tyrosinase expression compared to control cells (Tyrosinase): 31% | LD50 [3]: ≥ 4,000 mg/kg | LD50 [4]: 1,640 mg/kg

— US20220370317A1, “COMPOSITION FOR SKIN WHITENING, COMPRISING CARVONE OR SALT THEREOF AS ACTIVE INGREDIENT” (BOTANICSENS, priority 2019, published 2022)
